Consider 1 substance from patent US10596296B2, “Heparan sulphates” (Agency for Science, Technology and Research, priority 2014, dated 2020).

In one assay the target is T1, TGF-β1 (Homo sapiens, UniProt P01137).
T1 construct: full length mature TGF-β1 is 112 amino acids in length
The assay is described as follows: GAG-binding plate assay. As to conditions: wells coated with 5 μg/ml GAG; TGF-β1 100, 200 or 400 ng/ml. As for the experimental part: GAGs are immobilized in each well and then challenged with TGF-β1 according to the manufacturer's instructions. Briefly, triplicate wells are first pre-coated with 5 μg/ml of heparin, HS^PM, HS16^+ve or HS16^−ve in standard assay buffer (SAB: 100 mM NaCl, 50 mM sodium acetate, 0.2% v/v Tween 20, pH 7.2), and then incubated overnight at room temperature. The plates are next washed carefully three times with SAB, blocked with 250 μl of blocking solution (0.4% w/v fish skin gelatine, Sigma-Aldrich, in SAB) and incubated for 1 h at 37° C. TGF-β1 was then dissolved in blocking solution at a concentration of 100, 200, or 400 ng/ml. The plates are washed three times with SAB and each dilution of protein (200 μl) is dispensed into triplicate wells and incubated for 2 h at 37° C., rinsed with SAB and 200 μl of 750 ng/ml monoclonal mouse anti-TGF-β1 antibody (MAB2401, R&D Systems) added in blocking solution. Plates are then incubated for 1 h at 37° C., washed with SAB, and 200 μl of 1 μg/ml polyclonal goat anti-mouse biotinylated antibody (ab6788, Abcam) added in blocking solution. Again, plates are incubated for 1 h at 37° C., washed with SAB, and 200 μl of 220 ng/ml ExtrAvidin AP (Sigma-Aldrich) is added in blocking solution, incubated for 30 min at 37° C., and then rinsed with SAB. Finally, 200 μl of development reagent (SigmaFAST p-Nitrophenyl phosphate, Sigma-Aldrich) is added, incubated at 37° C. for 40 min and read at 405 nm within 1 h.
To determine the ability of TGF-β1 to bind to heparin, we utilized positively-charged GAG-binding plates (Iduron) as a capture substrate. GAGs were immobilized in each well and then challenged with TGF-β1 according to the manufacturer's instructions. Briefly, triplicate wells were first pre-coated with 5 μg/ml of full length heparin, size-fractionated heparin (dp14, 16, 18, 20, 22 and 24) or selectively […] heparin prepared in standard assay buffer (SAB: 100 mM NaCl, 50 mM sodium acetate, 0.2% v/v Tween 20, pH 7.2), and then incubated overnight at room temperature. The plates were next washed carefully three times with SAB, blocked with 250 μl of blocking solution (0.4% w/v fish skin gelatine, Sigma-Aldrich, in SAB) and incubated for 1 h at 37° C. TGF-β1 was then dissolved in blocking solution at a concentration of 100, 200, or 400 ng/ml. The plates were washed three times with SAB and each dilution of protein (200 μl) was dispensed into triplicate wells and incubated for 2 h at 37° C., rinsed with SAB and 200 μl of 750 ng/ml monoclonal mouse anti-TGF-β1 antibody (MAB2401, R&D Systems) added in blocking solution. […] Finally, 200 μl of development reagent (SigmaFAST p-Nitrophenyl phosphate, Sigma-Aldrich) was added, incubated at 37° C. for 40 min and read at 405 nm within 1 h.

The subject of assay [1] is chondrogenic differentiation of hMSCs. The assay is described as follows: qPCR of chondrogenic micromass pellets (Example 2). It is filed as cell-based, human. The note with it: for SOX9 expression / COMP expression: day 3. The protocol:
Total RNA was isolated from chondrogenic micromass pellets using TRIZOL reagent (Life Technologies, CA, USA) according to the manufacturer's protocol. Reverse transcription was carried out on 1 μg RNA using the SuperScript® VILO™ cDNA Synthesis Kit (Life Technologies) following the manufacturer's instructions, with the incubation at 42° C. being carried out for 2 h instead of 1 h. Each qPCR contained 40 ng cDNA, 1 μL TaqMan® primer-probe mix per gene, and 10 μL Taqman® Fast Universal PCR Master Mix (Life Technologies) in a final volume of 20 μL. Thermal cycling conditions were 95° C. for 20 s, followed by 45 cycles of 95° C. for 1 s and 60° C. for 20 s. Each qPCR was run in duplicate and gene expression was normalised to HPRT1 expression to obtain the ΔCt value. The average value of biological triplicates was taken. Chondrogenic micromass pellets cultured in media without GAG or TGF-β1 were used as controls (ΔΔCt). Relative expression levels for each primer set were expressed as fold changes by the 2-ΔΔCt method [Livak, K. J. and T. D. Schmittgen, Analysis of Relative Gene Expression Data Using Real-Time Quantitative PCR and the 2-ΔΔCT Method. Methods, 2001. 25(4): p. 402-408]. The following TaqMan® primer-probe assays (Life technologies) were used:
In order to assess the effects of HS16+ve on the chondrogenic differentiation of hMSCs in vitro, it was first necessary to establish the effects of TGF-β1 alone. Chondrogenic differentiation was carried out using a modified micromass culture system. [Zhang, L., et al., Chondrogenic differentiation of human mesenchymal stem cells: a comparison between micromass and pellet culture systems. Biotechnol Lett, 2010. 32(9): p. 1339-1346.]. Briefly, passage 4 hMSCs were harvested and resuspended in chemically defined chondrogenic media (PT-3003, Lonza, MD, USA) at 2×10^7 cells/mL. Droplets of 12.5 μL were then seeded into the middle of each well in a 24-well plate and left to adhere at 37° C. for 2 h, after which, 500 μL of chondrogenic media supplemented with either 1 or 10 ng/mL of TGF-β1 (100-210, PeproTech) alone or with either 5 or 10 μg/mL of heparin (Sigma-Aldrich), porcine mucosal HS (HSPM) (Celsus laboratories), HS16+ve or HS16-ve was added to each well. The cell droplets coalesced into spherical masses after 24 h. Media was changed every 3 days and the micromasses harvested on days 3, 7, 14 and 21.
Next, hMSCs were differentiated for 21 days in the presence of 1 ng/mL TGF-β1 alone (1 TGF-β1) or in combination with 10 μg/mL of GAG (heparin, HSPM, HS16+ve or HS16−ve) or with 10 ng/mL TGF-β1 (10 TGF-β1) as a positive control.

For a further assay, the target named is LTGF-β1 (Homo sapiens, UniProt P01137). As to conditions: reference (56); cited from earlier work.
Sequence of LTGF-β1 (P01137 279-390 limits assumed): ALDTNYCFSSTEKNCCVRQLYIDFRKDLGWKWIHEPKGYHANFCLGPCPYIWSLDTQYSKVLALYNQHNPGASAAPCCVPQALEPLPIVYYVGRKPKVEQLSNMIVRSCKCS
Sequence of LTGF-β1 (P01137 30-278 limits assumed): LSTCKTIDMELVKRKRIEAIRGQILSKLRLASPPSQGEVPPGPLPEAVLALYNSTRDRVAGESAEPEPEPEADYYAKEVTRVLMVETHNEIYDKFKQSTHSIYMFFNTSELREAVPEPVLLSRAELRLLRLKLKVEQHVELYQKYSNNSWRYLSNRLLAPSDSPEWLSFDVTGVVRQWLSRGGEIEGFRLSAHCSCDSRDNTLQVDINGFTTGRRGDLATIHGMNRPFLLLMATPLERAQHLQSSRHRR
Setting [2] is: 10 μg/mL heparin with 10 ng/mL TGF-β1.

T1 sequence (P01137 279-390 limits assumed): as the sequence (P01137 279-390 limits assumed) above

Take heparin: the “TGF-β1 binding to immobilized GAG” value at TGF-β1 is listed as “bound in a dose-dependent manner”. For the same substance, the “COMP expression increase relative to 1 ng/mL TGF-β1 alone” value in assay [1] (21 days, 1 ng/mL TGF-β1 with 10 μg/mL GAG) was approximately 2.5 fold. Further, the SOX9 expression entry is recorded as “did not significantly alter” in assay [1] (5 μg/mL heparin, regardless of the amount of TGF-β1); “did not affect SOX9 expression” in assay [1] (10 μg/mL heparin on its own); “increase the expression of SOX9” in assay [1] (10 μg/mL heparin with 1 ng/mL TGF-β1); “unable to bring about any change in SOX9 expression” in assay [1] (setting [2]). The COMP expression result in assay [1] (setting [2]) is listed as “reduced COMP expression levels”; in assay [1] (5 or 10 μg/mL heparin on their own), “slightly reduce”; in assay [1] (either dose of heparin with 10 ng/mL TGF-β1), “unable to elicit a further increase in COMP expression”; in assay [1] (heparin with 1 ng/mL TGF-β1), “increase COMP expression levels in a dose dependent manner”. Further, the Aggrecan expression result in assay [1] (day 21, 1 ng/mL TGF-β1 with 10 μg/mL GAG) is listed as “similar”. For the same substance, the “effect on activation of LTGF-β1” value on LTGF-β1 is “inhibit the activation of LTGF-β1”.
